Source: US20260184663A1, “INDENE COMPOUNDS, PHARMACEUTICAL COMPOSITIONS THEREOF, AND THEIR THERAPEUTIC APPLICATIONS” (NucMito Pharmaceuticals co. Ltd., priority 2022, published 2026)
Read-outs that look alike come from different tables or passages of the source.

Experiments:
Assay type in all cases: cell-based
HeLa (cervical cancer) = test: Antiproliferative activity (CCK-8 cell viability), HeLa; settings: Homo sapiens, 72 h, read-out: Antiproliferative activity in cancerous cells, HELA (inhibition of cell growth); for inhibition at 3.3 µM: Compound concentration: 3.3 μM; for inhibition at 10 µM: Compound concentration: 10 μM
Method in brief: (§1)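 Cells were seeded at 2,000-5,000/well (HeLa in MEM, HepG2 and SW480 in DMEM, A549 in F-12K, all with 10% FBS) and treated with compound at 3.3, 10 or 30 μM for 72 h at 37° C. CCK-8 was added for 4 h, absorbance was read at 450 nm, and viability was expressed relative to DMSO-treated wells.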

[1] = system: MDA-MB-231 (breast cancer); test: Antiproliferative activity (CCK-8 cell viability), MDA-MB-231; settings: Homo sapiens, 72 h; for inhibition at 3.3 µM: Compound concentration: 3.3 μM; for inhibition at 10 µM: Compound concentration: 10 μM; for inhibition at 30 µM: Compound concentration: 30 μM
Method in brief: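 In this CCK-8 viability assay, MDA-MB-231 cells maintained in Dulbecco's modified Eagle's medium containing 10% fetal bovine serum were placed in 96-well plates (2,000-5,000 cells/well) and treated with compound for 72 h at 37° C. A 4 h incubation with 10 μL CCK-8 followed, plates were read at 450 nm, and viability was expressed against DMSO vehicle wells across replicates.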

[2] = system: A549 (lung adenocarcinoma); test: Antiproliferative activity (CCK-8 cell viability), A549; settings: Homo sapiens, 72 h; for inhibition at 3.3 µM: Compound concentration: 3.3 μM; for inhibition at 10 µM: Compound concentration: 10 μM; for inhibition at 30 µM: Compound concentration: 30 μM
Method in brief: as §1

[3] = system: B16F10 (malignant melanoma); test: Antiproliferative activity (CCK-8 cell viability), B16F10; settings: Mus musculus, 72 h; for inhibition at 3.3 µM: B16-F10, Compound concentration: 3.3 μM; for inhibition at 10 µM: B16-F10, Compound concentration: 10 μM; for inhibition at 30 µM: B16-F10, Compound concentration: 30 μM
Method in brief: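 Attached B16F10 cells in 96-well plates were incubated with compound at 37° C for 72 h, followed by 10 μL CCK-8 reagent per well and a further 4 h incubation. A multi-well plate reader measured absorbance at 450 nm. Percent viability across replicates was calculated against DMSO vehicle-treated cells.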

[4] = system: A431 (epidermoid carcinoma); test: Antiproliferative activity (CCK-8 cell viability), A431; settings: Homo sapiens, 72 h, read-out: Antiproliferative activity in cancerous cells, A431 (inhibition of cell growth); for inhibition at 3.3 µM: A-431, Compound concentration: 3.3 μM; for inhibition at 10 µM: A-431, Compound concentration: 10 μM
Method in brief: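 Cell viability of compound-treated A431 cells was measured with a Cell Counting Kit-8. Each well received 10 μL of CCK-8 after 72 h of compound exposure, followed by 4 h incubation at 37° C. and a 450 nm plate-reader measurement. Percent viability was calculated relative to DMSO controls across replicates.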

HepG2 (liver cancer) = test: Antiproliferative activity (CCK-8 cell viability), HepG2; settings: Homo sapiens, 72 h; for inhibition at 3.3 µM: Compound concentration: 3.3 μM; for inhibition at 10 µM: Compound concentration: 10 μM; for inhibition at 30 µM: Compound concentration: 30 μM
Method in brief: as §1

SW480 (colon cancer) = test: Antiproliferative activity (CCK-8 cell viability), SW480; settings: Homo sapiens, 72 h; for inhibition at 3.3 µM: Compound concentration: 3.3 μM; for inhibition at 10 µM: Compound concentration: 10 μM; for inhibition at 30 µM: Compound concentration: 30 μM
Method in brief: as §1

[5] = read-out: Antiproliferative activity in cancerous cells, MDA-MB-231 (inhibition of cell growth)
[6] = read-out: Antiproliferative activity in cancerous cells, A549 (inhibition of cell growth)
[7] = read-out: Antiproliferative activity in cancerous cells, B16F10 (inhibition of cell growth)
[8] = read-out: Antiproliferative activity in cancerous cells, HepG2 (inhibition of cell growth)
[9] = read-out: Antiproliferative activity in cancerous cells, SW480 (inhibition of cell growth)

| SMILES | inhibition at 3.3 µM (HeLa (cervical cancer)) [%] | inhibition at 10 µM (HeLa (cervical cancer)) [%] | inhibition at 3.3 µM [1, 5] [%] | inhibition at 10 µM [1, 5] [%] | inhibition at 3.3 µM [2, 6] [%] | inhibition at 10 µM [2, 6] [%] | inhibition at 3.3 µM [3, 7] [%] | inhibition at 10 µM [3, 7] [%] | inhibition at 3.3 µM [4] [%] | inhibition at 10 µM [4] [%] | inhibition at 3.3 µM (HepG2 (liver cancer); [8]) [%] | inhibition at 10 µM (HepG2 (liver cancer); [8]) [%] | inhibition at 3.3 µM (SW480 (colon cancer); [9]) [%] | inhibition at 10 µM (SW480 (colon cancer); [9]) [%] | further results |
| --- | --- | --- | --- | --- | --- | --- | --- | --- | --- | --- | --- | --- | --- | --- | --- |
| CC1=C(CC(=O)O)c2cc(F)ccc2/C1=C\c1cccc(Oc2ccc(O)c(Cl)c2)c1 [C103, (Z)-2-(1-(3-(3-Chloro-4-hydroxyphenoxy)benzylidene)-5-fluoro-2-methyl-1H-inden-3-yl)acetic acid] | < 30 | ≥ 50 | < 30 | ≥ 50 | 30 to 50 | ≥ 50 | ≥ 50 | ≥ 50 | 30 to 50 | ≥ 50 | < 30 | ≥ 50 | < 30 | ≥ 50 |  |
| CC1=C(CC(=O)O)c2cc(F)ccc2/C1=C\c1ccc(COc2ccc(Cl)cc2)cc1C [B73, (Z)-2-(1-(4-((4-Chlorophenoxy)methyl)-2-methylbenzylidene)-5-fluoro-2-methyl-1H-inden-3-yl)acetic acid] | 30 to 50 | ≥ 50 | < 30 | < 30 | < 30 | ≥ 50 | 30 to 50 | 30 to 50 | ≥ 50 | ≥ 50 | < 30 | ≥ 50 | 30 to 50 | ≥ 50 |  |
| CCc1ccc2c(c1)/C(=C\c1ccc(COc3ccccc3)cc1)C(C)=C2CC(=O)O [B48, (Z)-2-(6-Ethyl-2-methyl-1-(4-(phenoxymethyl)benzylidene)-1H-inden-3-yl)acetic acid] | 30 to 50 | ≥ 50 | < 30 | < 30 | < 30 | 30 to 50 | 30 to 50 | 30 to 50 | ≥ 50 | ≥ 50 | < 30 | < 30 | < 30 | < 30 | inhibition at 30 µM ([1]; read-out: Antiproliferative activity in cancerous cells, MDA-MB-231): < 30%; inhibition at 30 µM ([2]; read-out: Antiproliferative activity in cancerous cells, A549): 30 to 50%; inhibition at 30 µM ([3]; read-out: Antiproliferative activity in cancerous cells, B16F10): 30 to 50%; inhibition at 30 µM (HepG2 (liver cancer); read-out: Antiproliferative activity in cancerous cells, HepG2): < 30%; inhibition at 30 µM (SW480 (colon cancer); read-out: Antiproliferative activity in cancerous cells, SW480): < 30% |
| CC1=C(CC(=O)O)c2cc(F)ccc2/C1=C/c1ccc(Oc2ccc(Cl)c(Cl)c2)cc1 [E21, (E)-2-(1-(4-(3,4-Dichlorophenoxy)benzylidene)-5-fluoro-2-methyl-1H-inden-3-yl)acetic acid] | ≥ 50 | ≥ 50 | ≥ 50 | ≥ 50 | 30 to 50 | ≥ 50 | < 30 | ≥ 50 | ≥ 50 | ≥ 50 | < 30 | ≥ 50 | 30 to 50 | ≥ 50 | inhibition at 30 µM (HeLa (cervical cancer); Compound concentration: 30 μM): ≥ 50%; inhibition at 30 µM [1, 5]: ≥ 50%; inhibition at 30 µM [2, 6]: ≥ 50%; inhibition at 30 µM [3, 7]: ≥ 50%; inhibition at 30 µM ([4]; A-431, Compound concentration: 30 μM): ≥ 50%; inhibition at 30 µM (HepG2 (liver cancer); [8]): ≥ 50%; inhibition at 30 µM (SW480 (colon cancer); [9]): ≥ 50% |
